Results published in ChEMBL document CHEMBL3826929, “Discovery and Preclinical Evaluation of BMS-711939, an Oxybenzylglycine Based PPARα Selective Agonist” (ACS Med Chem Lett, 2016).

Experiments:
[1] = molecular target: T1, Peroxisome proliferator-activated receptor alpha (Homo sapiens, UniProt Q07869); test: Agonist activity at full length human PPAR-alpha transfected in human HepG2 cells by luciferase reporter gene assay; assay type: cell-based
T1 sequence (Q07869 whole entry): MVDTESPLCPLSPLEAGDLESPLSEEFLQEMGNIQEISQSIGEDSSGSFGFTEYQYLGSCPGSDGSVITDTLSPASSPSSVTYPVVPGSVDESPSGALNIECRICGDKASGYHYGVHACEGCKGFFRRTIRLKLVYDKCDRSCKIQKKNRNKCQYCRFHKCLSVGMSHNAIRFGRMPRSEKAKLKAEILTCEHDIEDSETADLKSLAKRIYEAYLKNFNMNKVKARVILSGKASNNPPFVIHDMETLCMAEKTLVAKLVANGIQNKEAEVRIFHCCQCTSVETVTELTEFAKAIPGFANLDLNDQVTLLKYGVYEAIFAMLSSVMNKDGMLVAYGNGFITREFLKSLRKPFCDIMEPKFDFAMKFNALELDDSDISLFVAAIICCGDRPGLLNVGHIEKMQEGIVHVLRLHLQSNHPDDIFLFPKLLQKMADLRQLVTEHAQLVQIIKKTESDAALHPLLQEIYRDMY

Cytochrome P450 1A2 = Cytochrome P450 1A2 (Homo sapiens, UniProt P05177); test: Inhibition of CYP1A2 (unknown origin); assay type: ADME
Chain of Cytochrome P450 1A2 (P05177 whole entry): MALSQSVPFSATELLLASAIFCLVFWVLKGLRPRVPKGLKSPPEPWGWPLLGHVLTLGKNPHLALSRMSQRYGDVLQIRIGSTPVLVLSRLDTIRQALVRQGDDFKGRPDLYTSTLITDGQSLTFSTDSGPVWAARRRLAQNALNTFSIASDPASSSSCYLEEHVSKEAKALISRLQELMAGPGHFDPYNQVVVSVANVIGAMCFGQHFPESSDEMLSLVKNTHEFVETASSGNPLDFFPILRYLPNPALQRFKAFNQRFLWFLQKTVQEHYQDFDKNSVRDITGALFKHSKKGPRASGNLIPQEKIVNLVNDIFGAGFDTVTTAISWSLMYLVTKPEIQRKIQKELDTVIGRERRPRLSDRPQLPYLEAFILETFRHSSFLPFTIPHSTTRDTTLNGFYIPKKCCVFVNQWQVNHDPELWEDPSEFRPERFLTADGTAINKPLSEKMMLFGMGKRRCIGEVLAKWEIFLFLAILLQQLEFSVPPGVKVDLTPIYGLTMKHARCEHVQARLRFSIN

[2] = Tmax in Balb/c mouse at 10 mg/kg, po; assay type: ADME, organism-based; conditions: in vivo
Syrian golden hamster [3] = test: Decrease in plasma triglyceride level in high fat-diet fed syrian golden hamster model of dyslipidemia at 10 mg/kg administered qd through oral gavage measured after 21 days by FPLC analysis relative to control; assay type: functional, Mesocricetus auratus; parameters: scale not given: the % may be the effect or the level left
[4] = Half life in dog at 1 mg/kg, iv; assay type: ADME, organism-based, Canis lupus familiaris; conditions: in vivo
Cytochrome P450 2B6 = Cytochrome P450 2B6 (Homo sapiens, UniProt P20813); test: Inhibition of CYP2B6 (unknown origin); assay type: ADME
Chain of Cytochrome P450 2B6 (P20813 whole entry): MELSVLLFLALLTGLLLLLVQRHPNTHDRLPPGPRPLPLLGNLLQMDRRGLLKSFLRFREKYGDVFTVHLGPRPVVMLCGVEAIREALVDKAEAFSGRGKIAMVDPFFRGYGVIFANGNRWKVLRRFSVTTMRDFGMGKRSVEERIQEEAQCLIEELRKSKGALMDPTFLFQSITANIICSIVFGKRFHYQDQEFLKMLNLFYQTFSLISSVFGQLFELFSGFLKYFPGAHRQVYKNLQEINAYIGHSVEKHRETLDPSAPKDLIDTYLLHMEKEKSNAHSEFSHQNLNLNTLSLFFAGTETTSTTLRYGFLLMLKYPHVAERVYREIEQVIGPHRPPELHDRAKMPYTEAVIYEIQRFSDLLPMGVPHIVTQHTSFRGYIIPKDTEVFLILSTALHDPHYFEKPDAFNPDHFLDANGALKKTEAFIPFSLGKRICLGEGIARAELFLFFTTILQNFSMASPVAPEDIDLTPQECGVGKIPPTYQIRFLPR

[5] = molecular target: Glucocorticoid receptor (Homo sapiens) (UniProt P04150); test: Agonist activity at human GR by transactivation assay relative to standard compound
Cytochrome P450 3A4 = Cytochrome P450 3A4 (Homo sapiens, UniProt P08684); test: Inhibition of CYP3A4 in human TC5 cells; assay type: ADME, cell-based
HEK293 = test: Selectivity ratio of EC50 for Gal4-tagged human PPAR-gamma expressed in HEK cells to EC50 for Gal4-tagged human PPAR-alpha expressed in HEK cells; assay type: cell-based
Glucocorticoid receptor = Glucocorticoid receptor (Homo sapiens, UniProt P04150); test: Agonist activity at human GR by transactivation assay
[6] = AUC (0 to 8 hrs) in Sprague-Dawley rat at 4 mg/kg, iv; assay type: ADME, organism-based; parameters: time < 8 hr, dose 4 mg/kg, route intravenous; conditions: in vivo
[7] = Volume of distribution at steady state in dog at 1 mg/kg, iv; assay type: ADME, organism-based, Canis lupus familiaris; conditions: in vivo, read-out: Vdss
[8] = AUC (0 to 8 hrs) in dog at 1 mg/kg, iv; assay type: ADME, organism-based, Canis lupus familiaris; parameters: dose 1 mg/kg, time < 8 hr, route intravenous; conditions: in vivo
Mus musculus = test: Increase in HDL cholesterol level in transgenic mouse expressing human ApoA1 at 50 mg/kg administered qd through oral gavage measured after 10 days relative to vehicle control; assay type: functional
[9] = Cmax in Balb/c mouse at 10 mg/kg, po; assay type: ADME, organism-based; parameters: dose 10 mg/kg, route oral; conditions: in vivo
[10] = Oral bioavailability in cynomolgus monkey at 2 mg/kg; assay type: ADME, organism-based, Macaca fascicularis; conditions: in vivo
[11] = Protein binding in dog plasma; assay type: ADME, cell-free, Canis lupus familiaris; conditions: read-out: PPB (converted)
Cytochrome P450 2D6 = Cytochrome P450 2D6 (Homo sapiens, UniProt P10635); test: Inhibition of CYP2D6 in human TC5 cells; assay type: ADME, cell-based
Salmonella typhimurium [12] = test: Genotoxicity in Salmonella typhimurium TA100 up to 5000 ug by Ames test; assay type: toxicity, organism-based; conditions: salmonella enterica subsp. enterica serovar typhimurium
[13] = molecular target: Nuclear receptor subfamily 1 group I member 2 (Homo sapiens, UniProt O75469); test: Activation of PXR (unknown origin); assay type: ADME
Chain of Nuclear receptor subfamily 1 group I member 2 (O75469 whole entry): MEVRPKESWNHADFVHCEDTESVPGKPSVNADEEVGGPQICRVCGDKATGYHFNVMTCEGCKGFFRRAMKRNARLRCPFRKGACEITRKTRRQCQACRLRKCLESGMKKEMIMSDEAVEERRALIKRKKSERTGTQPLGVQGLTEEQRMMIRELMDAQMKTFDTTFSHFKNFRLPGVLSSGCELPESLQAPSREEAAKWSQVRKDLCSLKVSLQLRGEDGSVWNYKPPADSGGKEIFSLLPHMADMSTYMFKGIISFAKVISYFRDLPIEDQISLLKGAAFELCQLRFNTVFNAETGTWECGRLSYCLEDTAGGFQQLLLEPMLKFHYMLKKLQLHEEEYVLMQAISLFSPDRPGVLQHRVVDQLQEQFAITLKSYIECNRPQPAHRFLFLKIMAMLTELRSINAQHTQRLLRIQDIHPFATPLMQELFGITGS

Cytochrome P450 2C8 = Cytochrome P450 2C8 (Homo sapiens, UniProt P10632); test: Inhibition of CYP2C8 (unknown origin); assay type: ADME
Chain of Cytochrome P450 2C8 (P10632 whole entry): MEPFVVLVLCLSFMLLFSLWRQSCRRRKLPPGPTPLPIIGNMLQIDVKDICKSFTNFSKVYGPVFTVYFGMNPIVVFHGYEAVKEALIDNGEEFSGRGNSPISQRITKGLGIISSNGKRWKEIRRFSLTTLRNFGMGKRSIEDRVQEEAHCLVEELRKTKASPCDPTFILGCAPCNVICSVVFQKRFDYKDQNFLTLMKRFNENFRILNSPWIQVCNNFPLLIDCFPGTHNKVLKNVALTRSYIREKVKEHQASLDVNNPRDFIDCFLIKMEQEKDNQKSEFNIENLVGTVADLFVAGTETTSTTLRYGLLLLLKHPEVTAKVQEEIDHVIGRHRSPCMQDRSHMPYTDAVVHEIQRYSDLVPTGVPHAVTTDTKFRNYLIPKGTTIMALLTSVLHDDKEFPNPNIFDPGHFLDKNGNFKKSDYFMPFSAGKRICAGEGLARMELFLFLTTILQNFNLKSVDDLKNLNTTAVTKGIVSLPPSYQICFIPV

Rhesus monkey = test: Cardiovascular toxicity in monkey assessed as change in hemodynamic effect up to 20 mg/kg administered as single dose by telemetry test; assay type: organism-based, Macaca mulatta; conditions: in vivo
[14] = Cmax in Sprague-Dawley rat at 8 mg/kg, po; assay type: ADME, organism-based; parameters: dose 8 mg/kg, route oral; conditions: in vivo
[15] = Tmax in Sprague-Dawley rat at 8 mg/kg, po; assay type: ADME, organism-based; conditions: in vivo
[16] = Oral bioavailability in Sprague-Dawley rat at 8 mg/kg; assay type: ADME, organism-based; conditions: in vivo
Syrian golden hamster [17] = test: Decrease in liver cholesterol level in high fat-diet fed syrian golden hamster model of dyslipidemia at 3 mg/kg administered qd through oral gavage measured after 21 days by FPLC analysis relative to control; assay type: functional, Mesocricetus auratus; parameters: scale not given: the % may be the effect or the level left
[18] = Protein binding in rat plasma; assay type: ADME, cell-free; conditions: read-out: PPB (converted)
[19] = molecular target: Liver X receptor (Homo sapiens) (UniProt Q13133+P55055); test: Agonist activity at human LXR by transactivation assay relative to standard compound; assay type: protein assay
[20] = Oral bioavailability in dog at 2 mg/kg; assay type: ADME, organism-based, Canis lupus familiaris; conditions: in vivo
[21] = molecular target: Peroxisome proliferator-activated receptor delta (Homo sapiens) (UniProt Q03181); test: Agonist activity against human PPAR-delta by transactivation assay relative to standard compound
Chain of Peroxisome proliferator-activated receptor delta (Homo sapiens) (Q03181 whole entry): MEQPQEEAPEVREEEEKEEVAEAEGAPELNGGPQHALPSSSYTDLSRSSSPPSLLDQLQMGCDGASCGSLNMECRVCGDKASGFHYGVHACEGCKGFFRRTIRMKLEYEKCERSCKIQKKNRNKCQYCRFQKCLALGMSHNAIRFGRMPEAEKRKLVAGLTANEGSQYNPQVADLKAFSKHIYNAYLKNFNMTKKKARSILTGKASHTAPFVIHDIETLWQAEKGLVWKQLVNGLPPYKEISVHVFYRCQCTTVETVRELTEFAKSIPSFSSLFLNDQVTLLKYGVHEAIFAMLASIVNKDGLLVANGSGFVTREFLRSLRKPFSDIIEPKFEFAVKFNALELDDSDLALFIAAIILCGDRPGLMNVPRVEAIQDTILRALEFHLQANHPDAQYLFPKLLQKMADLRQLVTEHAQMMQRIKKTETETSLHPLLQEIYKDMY

[22] = molecular target: Retinoid X receptor (Homo sapiens) (UniProt P28702+P48443+P19793); test: Agonist activity at human RXR by transactivation assay relative to standard compound; assay type: protein assay
Chain of Retinoid X receptor (Homo sapiens) (P19793 whole entry, looked up): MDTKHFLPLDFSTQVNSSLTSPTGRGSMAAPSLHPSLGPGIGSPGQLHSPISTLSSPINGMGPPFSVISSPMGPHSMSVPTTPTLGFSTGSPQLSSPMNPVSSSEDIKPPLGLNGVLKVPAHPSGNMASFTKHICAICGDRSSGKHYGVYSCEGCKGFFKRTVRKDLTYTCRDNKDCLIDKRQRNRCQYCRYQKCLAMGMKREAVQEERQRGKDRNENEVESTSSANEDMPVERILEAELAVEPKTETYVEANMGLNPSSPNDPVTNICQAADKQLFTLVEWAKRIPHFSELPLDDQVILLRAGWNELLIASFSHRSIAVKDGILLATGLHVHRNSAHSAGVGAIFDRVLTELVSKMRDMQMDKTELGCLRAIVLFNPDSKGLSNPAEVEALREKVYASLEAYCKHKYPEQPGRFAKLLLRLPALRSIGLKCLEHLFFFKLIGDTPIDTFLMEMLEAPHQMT
Chain of Retinoid X receptor (Homo sapiens) (P28702 whole entry, looked up): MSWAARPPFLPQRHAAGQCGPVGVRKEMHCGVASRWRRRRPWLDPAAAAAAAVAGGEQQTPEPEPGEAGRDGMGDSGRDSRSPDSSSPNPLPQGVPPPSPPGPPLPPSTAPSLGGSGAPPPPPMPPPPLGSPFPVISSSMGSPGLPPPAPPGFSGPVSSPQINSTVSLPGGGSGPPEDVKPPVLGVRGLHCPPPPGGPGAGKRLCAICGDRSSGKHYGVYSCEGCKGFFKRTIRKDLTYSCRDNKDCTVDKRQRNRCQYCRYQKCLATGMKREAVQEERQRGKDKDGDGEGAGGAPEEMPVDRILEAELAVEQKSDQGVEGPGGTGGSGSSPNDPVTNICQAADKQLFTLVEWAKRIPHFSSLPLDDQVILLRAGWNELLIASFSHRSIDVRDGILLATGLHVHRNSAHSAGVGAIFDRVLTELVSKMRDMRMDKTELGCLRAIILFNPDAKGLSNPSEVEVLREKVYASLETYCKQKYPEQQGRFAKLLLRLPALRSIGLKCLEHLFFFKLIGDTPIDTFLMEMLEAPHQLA
Chain of Retinoid X receptor (Homo sapiens) (P48443 whole entry, looked up): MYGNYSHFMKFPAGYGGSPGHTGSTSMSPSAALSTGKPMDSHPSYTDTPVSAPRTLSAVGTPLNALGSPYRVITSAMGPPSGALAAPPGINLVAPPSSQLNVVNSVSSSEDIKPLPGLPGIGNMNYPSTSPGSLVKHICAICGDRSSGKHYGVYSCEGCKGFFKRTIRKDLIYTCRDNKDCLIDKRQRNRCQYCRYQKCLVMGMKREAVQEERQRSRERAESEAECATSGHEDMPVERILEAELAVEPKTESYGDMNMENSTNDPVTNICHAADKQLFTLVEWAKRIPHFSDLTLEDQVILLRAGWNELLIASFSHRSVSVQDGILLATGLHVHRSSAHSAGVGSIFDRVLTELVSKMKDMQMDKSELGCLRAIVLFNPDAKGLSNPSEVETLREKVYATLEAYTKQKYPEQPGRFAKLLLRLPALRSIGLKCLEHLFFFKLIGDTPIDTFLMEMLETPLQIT

Syrian golden hamster [23] = test: Decrease in plasma LDL cholesterol level in high fat-diet fed syrian golden hamster model of dyslipidemia at 10 mg/kg administered qd through oral gavage measured after 21 days by FPLC analysis relative to control; assay type: functional, Mesocricetus auratus; parameters: scale not given: the % may be the effect or the level left
Salmonella typhimurium [24] = test: Genotoxicity in Salmonella typhimurium TA98 up to 5000 ug by Ames test; assay type: toxicity, organism-based; conditions: salmonella enterica subsp. enterica serovar typhimurium
hERG (KCNH2) = hERG (KCNH2) (Homo sapiens, UniProt Q12809); test: Inhibition of human ERG at 30 uM by patch-clamp method
Chain of hERG (KCNH2) (Q12809 whole entry): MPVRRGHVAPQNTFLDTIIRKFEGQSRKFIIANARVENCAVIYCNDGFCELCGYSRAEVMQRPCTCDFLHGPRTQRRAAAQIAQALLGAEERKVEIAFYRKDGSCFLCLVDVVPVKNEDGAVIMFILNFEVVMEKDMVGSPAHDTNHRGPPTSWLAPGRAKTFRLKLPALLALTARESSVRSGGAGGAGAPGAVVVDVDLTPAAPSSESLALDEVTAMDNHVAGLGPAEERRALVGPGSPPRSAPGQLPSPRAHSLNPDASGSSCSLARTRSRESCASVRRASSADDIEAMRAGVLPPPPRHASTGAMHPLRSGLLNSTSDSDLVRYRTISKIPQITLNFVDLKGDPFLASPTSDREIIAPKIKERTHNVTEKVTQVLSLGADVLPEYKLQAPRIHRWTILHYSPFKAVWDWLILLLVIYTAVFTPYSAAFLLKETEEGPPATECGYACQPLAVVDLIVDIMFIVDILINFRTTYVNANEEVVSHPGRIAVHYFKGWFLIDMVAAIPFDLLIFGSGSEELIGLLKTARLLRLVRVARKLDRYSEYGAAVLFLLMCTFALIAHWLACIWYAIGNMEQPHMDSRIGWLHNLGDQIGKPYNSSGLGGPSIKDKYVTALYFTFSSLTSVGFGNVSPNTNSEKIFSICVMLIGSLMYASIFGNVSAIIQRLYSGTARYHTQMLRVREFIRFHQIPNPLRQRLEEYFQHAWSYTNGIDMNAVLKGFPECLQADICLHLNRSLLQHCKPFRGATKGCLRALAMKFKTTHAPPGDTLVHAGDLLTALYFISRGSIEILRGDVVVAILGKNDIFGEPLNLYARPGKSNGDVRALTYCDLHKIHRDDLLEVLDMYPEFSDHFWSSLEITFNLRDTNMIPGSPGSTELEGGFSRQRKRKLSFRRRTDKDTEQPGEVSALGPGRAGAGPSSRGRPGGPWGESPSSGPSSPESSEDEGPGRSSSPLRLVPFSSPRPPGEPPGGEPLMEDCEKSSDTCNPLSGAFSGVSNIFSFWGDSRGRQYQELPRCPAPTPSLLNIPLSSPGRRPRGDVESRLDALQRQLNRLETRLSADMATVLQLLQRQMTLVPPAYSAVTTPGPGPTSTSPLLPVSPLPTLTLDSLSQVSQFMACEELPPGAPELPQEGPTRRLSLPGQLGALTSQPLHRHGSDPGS

Syrian golden hamster [25] = test: Decrease in liver cholesterol level in high fat-diet fed syrian golden hamster model of dyslipidemia at 1 mg/kg administered qd through oral gavage measured after 21 days by FPLC analysis relative to control; assay type: functional, Mesocricetus auratus; parameters: scale not given: the % may be the effect or the level left

## COC(=O)N(CC(=O)O)Cc1cc(OCc2nc(-c3ccc(Cl)cc3)oc2C)ccc1F
[1]
  EC50: 0.005 µM
Cytochrome P450 1A2
  IC50: > 40 µM
[2]
  Tmax: 15 min
Syrian golden hamster [3]
  Activity: 85%
[4]
  half-life: 330 min
Cytochrome P450 2B6
  IC50: > 40 µM
[5]
  Efficacy: < 15%
Cytochrome P450 3A4
  IC50: > 150 µM
HEK293
  Ratio EC50: 1130
Glucocorticoid receptor
  EC50: > 25 µM
[6]
  AUC(0-t) at 8 h: 9.4 µM·h
[7]
  Vd: 2.1 L/kg
[8]
  AUC(0-t) at 8 h: 3.5 µM·h
Mus musculus
  Activity: 109%
[9]
  Cmax: 22.7 µM
[10]
  bioavailability: 65%
[11]
  fraction unbound: 0.005
Cytochrome P450 2D6
  IC50: > 150 µM
Salmonella typhimurium [12]
  Activity: Non-toxic
[13]
  EC60: > 50 µM
Cytochrome P450 2C8
  IC50: > 40 µM
Rhesus monkey
  Activity: Non-toxic
[14]
  Cmax: 14.9 µM
[15]
  Tmax: 18 min
[16]
  bioavailability: 100%
Syrian golden hamster [17]
  Activity: 56.8%
[18]
  fraction unbound: 0.004
[19]
  Efficacy: < 15%
[20]
  bioavailability: 59%
[21]
  Efficacy: < 15%
[22]
  Efficacy: < 15%
Syrian golden hamster [23]
  Activity: 87%
Salmonella typhimurium [24]
  Activity: Non-toxic
hERG (KCNH2)
  inhibition at 30 µM: 4%
Syrian golden hamster [25]
  Activity: 13%
